{
  "source": "patent US20030153951A1",
  "about": "“Methods and devices for treating arrhythmias using defibrillation shocks” (priority 2002, published 2003)",
  "key": {"ventricular fibrillation": {"system": "ventricular fibrillation", "assay": "Defibrillation threshold (3-reversal up/down protocol) after electrically induced ventricular fibrillation in anesthetized pigs", "assay_type": "in vivo", "text": "(§1) Six healthy pigs (30-35 kg) of either sex were anesthetized, monitored, and maintained under physiologic conditions. See, Chattipakorn et al. (2000). Two catheter-mounted platinum coated titanium coil electrodes were used as defibrillating electrodes. A 34-mm catheter was inserted into the right ventricular (RV) apex and served as the cathode for the first phase of the biphasic shock. […] The position of the catheters was verified with fluoroscopy. The blood pressure and heart rate were monitored continuously throughout the entire study.\nVentricular fibrillation was induced by 60-Hz alternating current delivered via an electrode at the tip of the RV catheter. After 10 seconds of ventricular fibrillation, defibrillation was attempted with 10-ms biphasic truncated exponential shocks. Delivered voltage and current were recorded on a waveform analyzer and total delivered energy was calculated. A minimum of 4 min was allowed to elapse between ventricular fibrillation episodes.\n(§2) The defibrillation threshold was determined 4 times during 4 different conditions in this study. The defibrillation threshold in each group was determined using a 3-reversal up/down protocol. See Chattipakorn et al. The first defibrillation threshold was determined at the beginning of the study. This defibrillation threshold was used as a control defibrillation threshold (control-DFT). Then, Flunarizine, a delayed afterdepolarization inhibitor, was injected intravenously as a bolus (2 mg/kg) and maintenance (4 mg/kg/hr) dose. The second defibrillation threshold (drug-DFT) was determined 15 minutes after the application of Flunarizine. After the drug-DFT was obtained, the administration of Flunarizine was terminated while the blood pressure and heart rate were monitored. The third defibrillation threshold (washout-DFT) was determined again when the blood pressure returned to the control level which normally took 60 minutes after the termination of the drug.\nValues are shown as mean standard deviation. Comparisons of data among different defibrillation threshold groups were performed using an analysis of variance. When statistical significance was found, individual differences were analyzed with a Fisher's post-hoc test. Differences were considered significant when P<0.05."}, "[1]": {"assay": "Systolic blood pressure monitored during the defibrillation threshold study", "assay_type": "in vivo", "conditions": "pigs", "text": "as §1\nas §2, with “Then, Flunarizine, a delayed afterdepolarization inhibitor, was injected intravenously as a bolus (2 mg/kg) and maintenance (4 mg/kg/hr) dose.” left out, “drug. […]” for “drug.”"}},
  "data": [
    {"smiles": "Fc1ccc(C(c2ccc(F)cc2)N2CCN(C/C=C/c3ccccc3)CC2)cc1", "note": "[Flunarizine]", "values": [
      {"measurement": "washout defibrillation threshold compared with control-DFT", "setting": "ventricular fibrillation; after termination of drug, when blood pressure returned to control level (normally 60 minutes)", "result": "not significantly different from the control-DFT"},
      {"measurement": "reduction of the defibrillation threshold by energy", "setting": "ventricular fibrillation; drug-DFT vs control-DFT", "result": "approximately 40%"},
      {"measurement": "reduction of the defibrillation threshold by leading edge voltage", "setting": "ventricular fibrillation; drug-DFT vs control-DFT", "result": "approximately 22%"},
      {"measurement": "drug-DFT, delivered leading edge voltage", "setting": "ventricular fibrillation; i.v. bolus 2 mg/kg + maintenance 4 mg/kg/hr, determined 15 minutes after application, 10-ms biphasic shocks, mean ± SD, control-DFT 623±120 volts", "result": "485±82", "unit": "volts"},
      {"measurement": "drug-DFT, total delivered energy", "setting": "ventricular fibrillation; i.v. bolus 2 mg/kg + maintenance 4 mg/kg/hr, determined 15 minutes after application, mean ± SD, control-DFT 23±4 joules", "result": "14±3", "unit": "joules"},
      {"measurement": "systolic blood pressure", "setting": "[1]; after i.v. injection (bolus 2 mg/kg + 4 mg/kg/hr), mean ± SD, control 102±11 mmHg", "result": "76±10", "unit": "mmHg"},
      {"measurement": "reduction of the systolic blood pressure", "setting": "[1]; vs control", "result": "~26", "unit": "%"}
    ]}
  ]
}
